Each structure is given as a SMILES string. Read-outs that look alike come from different tables or passages of the source.

Data set [1] deals with Karpas422 cells. In words: Cell proliferation assay, Karpas422. It counts as cell-based. To be noted: Homo sapiens. On the procedure:
(§1) Human B-cell non-Hodgkin's lymphoma cells WSU-DLCL2, Karpas422 and Pfeiffer were cultured in cell culture flasks in a sterile incubator with 95% relative humidity and 5% CO2 at 37° C. The medium was RPMI-1640 (Gibco, product No. 31800022) containing 15% fetal bovine serum (FBS, Gibco, product No. 10099141) and 0.1% penicillin/streptomycin solution (P/S). In order to assay the effects of compounds on cell proliferation, cells in exponential growth phase were seeded into a 12-well plate (Nunc, product No. 150628) with 1 mL of medium per well, wherein WSU-DLCL2 and Karpas422 were seeded at a density of 1×10^5 cells/well, and Pfeiffer was seeded at a density of 2×10^5 cells/well. At the same time, different concentrations of compounds were added to the wells that had seeded with cells (6 concentrations were set for each compound at 3-fold serial dilution), and the final concentration of DMSO was 0.1%. After that, the number of viable cells was determined by Vi-CELL (Beckman Coulter) for WSU-DLCL2 and Pfeiffer every 3 days, and for Karpas422 on days 4, 7, and 11, respectively. The cells counted each time were seeded into a new 12-well plate at the same density, and supplemented with fresh medium to 1 mL. Different concentrations of compounds were added at the same time. WSU-DLCL2 and Pfeiffer were cultured to the 9th day, and Karpas422 was cultured to the 14th day. Cell data were collected uniformly, and analyzed with GraphPad prisim5. Dose curves were fitted, and IC50 values of the assay compounds were obtained.

Data set [2] deals with cellular H3K27 methylation. Briefly: Cellular H3K27 methylation assay (Western blot of H3K27me3 in HeLa cells). It counts as cell-based. The conditions noted are these: Homo sapiens, 72 h, read-out: PD IC50.
In data set [3] the test system is WSU-DLCL2 cells. In words: Cell proliferation assay, WSU-DLCL2. The conditions noted are these: Homo sapiens. It counts as cell-based. On the procedure:
as §1

A short description of data set [4]: Pharmacokinetic study in rats. It counts as in vivo, SD rats. To be noted: rat; for AUC(0-inf) / Cmax / Tmax / clearance / half-life / MRT inf: male, SD, plasma; for MRT inf: read-out: MRT0-∞. On the procedure: Six SPF SD rats, male, weighing 180-220 g, were randomly divided into 2 groups with 3 rats in each group. The compounds of the present disclosure were administered by oral gavage (PO) and intravenous injection (IV), respectively, and the assay compounds were formulated with a vehicle (5% DMSO+10% Solutol+85% pH 4.65 Acetate buffer).
Dosage: 1 mg/kg for intravenous injection and 2 mg/kg for oral administration.
Dosing volume: 5 mL/kg for intravenous injection and 10 mL/kg for oral administration.
The oral administration group was fasted overnight (10-14 h) before the assay, and drank water freely. After 4 hours of administration, they were fed uniformly. They were weighed before administration, and the dosage was calculated according to the body weight.
Intravenous administration: 0.083, 0.25, 0.5, 1, 2, 4, 6, 8, 10 and 24 h after administration;
Oral gavage administration: 0.25, 0.5, 1, 2, 4, 6, 8, 10, 12 and 24 h after administration;
Blood was collected from the jugular vein of rats at the above set time points, about 0.2 mL each time. The blood was anticoagulated with heparin sodium, placed on ice after collection, and centrifuged within 1 hour to separate the plasma (centrifugation conditions: 6800 g, 6 minutes, 2-8° C.). Plasma samples were stored in a −80° C. freezer prior to analysis.
The concentration of each compound in rat plasma was determined by LC/MS/MS method.
Through the plasma drug concentration data at different time points, pharmacokinetic parameters were calculated using Phoenix WinNonlin 7.0, thereby providing parameters such as AUC0-t, AUC0-∞, MRT0-∞, Cmax, Tmax, and T1/2 and mean and standard deviation thereof.

Data set [5] relates to Pfeiffer cells. Briefly: Cell proliferation assay, Pfeiffer. It counts as cell-based. To be noted: Homo sapiens, cultured to the 9th day, read-out: Anti-proliferation IC50. The procedure: as §1
The mark [6] stands for this setting: KARPAS-422, Karpas422 cells, cultured to the 14th day, read-out: Anti-proliferation IC50.
The mark [7] stands for this setting: HeLa cells, 3 days, H3K27me3 level by Western blot.
The mark [8] stands for this setting: WSUDLCL2, WSU-DLCL2 cells, cultured to the 9th day, read-out: Anti-proliferation IC50.

As to `CS(=O)(=O)c1ccc(-c2cnc(NCc3ccco3)n3cnnc23)cc1` [EED226, reference compound], the IC50 in data set [1] (setting [6]) is 123 nM; in data set [2] (setting [7]) it was 220 nM; in data set [3] (setting [8]), 131 nM.
A word on the AUC(0-inf): it is the area under the concentration-time curve extrapolated to infinity. A low value points to less exposure. As a reminder, the Cmax is the highest concentration seen after dosing. Broadly, the Tmax is the time from dosing to the highest level. One may read the clearance as the volume of plasma or blood freed of the substance per unit of time. In general, half-life refers to the time in which the quantity being followed falls by half. Lower therefore signals rapid decline. Consider `O=C(Nc1cnc(NCc2c(F)ccc3c2CCO3)n2cnnc12)C1CC1` [HJM-030], for which, in data set [4] (IV, 1 mg/kg), the AUC(0-inf) was found to be 1230 ng·h/mL, the peak level (Cmax) was 1500 ng/mL, the Tmax stood at 0.08 h and the clearance stood at 13.6 mL/min/kg. In data set [4] (IV, 1 mg/kg), the half-life is 1.7 h and the MRT inf was 1.02 h. Besides, in data set [4] (PO, 2 mg/kg), the AUC(0-inf) is 1450 ng·h/mL, the Cmax was found to be 394 ng/mL, the Tmax worked out at 0.42 h and the half-life is 1.32 h. In addition, in data set [4] (PO, 2 mg/kg), the MRT inf came out at 2.93 h and the F worked out at 58.53%. Moreover, the IC50 in data set [1] (setting [6]) was determined as 42.1 nM. In addition, the IC50 in data set [2] (setting [7]) was found to be 26.7 nM. For the same compound, in data set [3] (setting [8]), the IC50 was found to be 39.6 nM.
On to `O=C1CCCN1c1cnc(NCc2c(F)ccc3c2CCO3)n2cnnc12` [HJM-067], for which, in data set [4] (IV, 1 mg/kg), the AUC(0-inf) was determined as 695 ng·h/mL, the highest level (Cmax) was 946 ng/mL, the Tmax amounted to 0.08 h and the clearance amounted to 24.1 mL/min/kg. In addition, in data set [4] (IV, 1 mg/kg), the half-life is 3 h and the MRT inf was found to be 0.8 h. In data set [4] (PO, 2 mg/kg), the area under the curve AUC(0-inf) amounted to 846 ng·h/mL, the Cmax was 306 ng/mL, the time of peak concentration (Tmax) worked out at 0.83 h and the half-life was 3.03 h. For the same compound, in data set [4] (PO, 2 mg/kg), the MRT inf worked out at 2.7 h and the F was found to be 60.72%. Moreover, the IC50 in data set [1] (KARPAS-422, read-out: Anti-proliferation IC50) amounted to 51 nM. The IC50 in data set [2] (HeLa) worked out at 21.1 nM. For the same compound, the IC50 in data set [3] (WSUDLCL2, read-out: Anti-proliferation IC50) was found to be 29.4 nM.
On to `CCN(C(=O)C1CC1)c1cnc(NCc2c(F)ccc3c2CCO3)n2cnnc12` [HJM-079], for which, in data set [4] (IV, 1 mg/kg), the AUC(0-inf) is 857 ng·h/mL, the peak concentration (Cmax) was determined as 750 ng/mL, the Tmax stood at 0.08 h and the clearance amounted to 19.5 mL/min/kg. Besides, in data set [4] (IV, 1 mg/kg), the half-life was 0.92 h and the MRT inf turned out to be 1.1 h. Besides, in data set [4] (PO, 2 mg/kg), the AUC(0-inf) worked out at 706 ng·h/mL, the peak level (Cmax) was 222 ng/mL, the Tmax stood at 0.42 h and the half-life was 1.72 h. Besides, in data set [4] (PO, 2 mg/kg), the MRT inf amounted to 2.94 h and the F amounted to 40.87%. Also, the IC50 in data set [2] (setting [7]) was determined as 15.3 nM. Besides, the IC50 in data set [3] (setting [8]) came to 36.8 nM.
In the case of `Fc1ccc2c(c1CNc1ncc(OCC3CCOC3)c3nncn13)CCO2` (centres unmarked) [HJM-102], in data set [4] (IV, 1 mg/kg), the AUC(0-inf) was determined as 1140 ng·h/mL, the Cmax was 1180 ng/mL, the time to peak (Tmax) was 0.08 h and the clearance was found to be 14.8 mL/min/kg. In addition, in data set [4] (IV, 1 mg/kg), the half-life is 1.98 h and the MRT inf came out at 1.4 h. Further, in data set [4] (PO, 2 mg/kg), the AUC(0-inf) was 1890 ng·h/mL, the Cmax was determined as 369 ng/mL, the Tmax was found to be 1.5 h and the half-life was 1.68 h. In addition, in data set [4] (PO, 2 mg/kg), the MRT inf worked out at 3.55 h and the F is on record as 82.62%. Besides, the IC50 in data set [1] (setting [6]) is 99.3 nM. Besides, the IC50 in data set [5] turned out to be 47.4 nM. Also, the IC50 in data set [2] (setting [7]) is 32.7 nM. Moreover, in data set [3] (setting [8]), the IC50 was found to be 25.1 nM.
Regarding `CC1(COc2cnc(NCc3c(F)ccc4c3CCO4)n3cnnc23)COC1` [HJM-105], in data set [4] (IV, 1 mg/kg), the AUC(0-inf) worked out at 1910 ng·h/mL, the peak level (Cmax) was 1600 ng/mL, the Tmax was 0.08 h and the clearance turned out to be 8.83 mL/min/kg. Besides, in data set [4] (IV, 1 mg/kg), the half-life was 1.82 h and the MRT inf turned out to be 1.56 h. Besides, in data set [4] (PO, 2 mg/kg), the AUC(0-inf) stood at 1790 ng·h/mL, the highest level (Cmax) was 342 ng/mL, the Tmax was found to be 2.83 h and the half-life was 1.41 h. Moreover, in data set [4] (PO, 2 mg/kg), the MRT inf was determined as 3.29 h and the F amounted to 47.22%. Besides, in data set [2] (setting [7]), the IC50 amounted to 29.4 nM. In addition, the IC50 in data set [3] (setting [8]) amounted to 35.4 nM.

(Values after patent publication US12552796B2, “EED inhibitor, and preparation method therefor and use thereof” (SHANGHAITECH UNIVERSITY, priority 2019, dated 2026).)
